The results in this text go back to patent US6812229B1, “Carbamate derivative and agricultural/horticultural fungicide” (Kumiai Chemical Industry Co., Ltd., priority 1999, dated 2004).

Each structure is given as a SMILES string.

The test system of the assay is Septoria nodorum. The assay can be described thus: Test for preventive effect on Septoria leaf blotch of wheat. In kind it is in vivo. The conditions noted are these: wheat seedlings (Norin-61-go), two-leaf stage, 50 ppm active ingredient, 10 ml per pot, evaluated 10 days after inoculation with Septoria nodorum. From the text: [table] 10 Wheat seeds (variety: Norin-61-go) were sown in each plastic pot having a diameter of 6 cm, and grown in a greenhouse. […] Then, the seedlings were inoculated with Septoria nodorum […] controlled in a greenhouse. 10 Days after the inoculation, the total diseased area of the first leaves in each pot was observed and evaluated on the basis of the standards shown in Table 21.
Regarding `COC(=O)NCc1cc(C(C)=NOCc2ccccc2C)ccc1F` [A-327], the “Evaluation (total diseased area of the first leaves)” value (“Evaluation” for short) is listed as “A (No diseased area)”.
The entry for `COC(=O)NCc1cc(C(C)=NOCc2ccccc2C(F)(F)F)ccc1F` [A-328] is “A (No diseased area)”.
For `COC(=O)NCc1cc(C(C)=NOCc2cccc(OC)c2)ccc1F` [A-329], the “Evaluation” value was “A (No diseased area)”.
Turning to `COC(=O)NCc1cc(C(C)=NOCc2ccccn2)ccc1F` [A-330], the “Evaluation” value was “B (Diseased area of less than 5%)”.
The entry for `COC(=O)NCc1cc(C(C)=NOCc2ccccn2)ccc1C` [A-333] is “A (No diseased area)”; for `COC(=O)NCc1cc(C(C)=NOCc2ccc(C)cn2)ccc1Cl` [A-334] it is “A (No diseased area)”.
On to `COC(=O)NCc1cccc(C(C)=NOCc2ccccc2Cl)c1` [A-338], for which the “Evaluation” value was “A (No diseased area)”.
The result for `COC(=O)NCc1cccc(C(C)=NOCc2cccc(Cl)c2)c1` [A-339] reads “A (No diseased area)”; that for `COC(=O)NCc1cccc(C(C)=NOCc2ccc(Cl)cc2)c1` [A-340], “B (Diseased area of less than 5%)”; that for `COC(=O)NCc1cc(C(=NOCc2ccccc2Cl)C2CC2)ccc1Cl` [A-341], “A (No diseased area)”.
For the compound `COC(=O)NCc1cc(C(C)=NOCc2ccccc2F)ccc1C` [A-342], the “Evaluation” value was “A (No diseased area)”.
The result for `COC(=O)NCc1cccc(C(C)=NOCc2ccccc2C)c1` [A-343] reads “A (No diseased area)”.
The entry for `COC(=O)NCc1cccc(C(C)=NOCc2cccc(C)c2)c1` [A-344] is “A (No diseased area)”.
As to `COC(=O)NCc1cccc(C(C)=NOCc2ccc(C)cc2)c1` [A-345], the “Evaluation” value is recorded as “B (Diseased area of less than 5%)”.
`COC(=O)NCc1cccc(C(C)=NOCc2ccccc2C(F)(F)F)c1` [A-348]: the “Evaluation” value is “B (Diseased area of less than 5%)”.
For `COC(=O)NCc1cccc(C(C)=NOCc2cccc(C(F)(F)F)c2)c1` [A-349], the “Evaluation” value was “A (No diseased area)”.
As to `COC(=O)NCc1cc(C(C)=NOCc2ccccn2)cc(C)c1Cl` [A-355], the “Evaluation” value is listed as “B (Diseased area of less than 5%)”.
The result for `COC(=O)NCc1cc(C(C)=NOCc2ccccc2C#N)cc(C)c1Cl` [A-356] reads “A (No diseased area)”; that for `COC(=O)NCc1cc(C(C)=NOCc2ccccc2Cl)cc(C)c1C` [A-358], “A (No diseased area)”; that for `COC(=O)NCc1cc(C(=NOCc2ccccc2C)C2CC2)ccc1Cl` [A-359], “B (Diseased area of less than 5%)”.
The result for `COC(=O)NCc1cc(C(C)=NOCc2ccccc2C#N)ccc1C` [A-360] reads “A (No diseased area)”.
The entry for `COC(=O)N(Cc1cc(C(C)=NOCc2ccccc2C#N)ccc1C)Cc1ccccc1C#N` [A-361] is “B (Diseased area of less than 5%)”; for `COC(=O)NCc1cc(C(C)=NOCc2cccc(C)c2)ccc1C` [A-362] it is “A (No diseased area)”; for `COC(=O)NCc1cc(C(C)=NOCc2ccc(C)cc2)ccc1C` [A-363] it is “A (No diseased area)”.
Consider `COC(=O)NCc1cc(C(C)=NOCc2cccc(Cl)c2)ccc1C` [A-364], for which the “Evaluation” value is recorded as “A (No diseased area)”.
The result for `COC(=O)NCc1cc(C(C)=NOCc2ccc(Cl)cc2)ccc1C` [A-365] reads “B (Diseased area of less than 5%)”.
The entry for `CON=C(C)CON=C(C)c1ccc(C)c(CNC(=O)OC)c1` [A-368] is “A (No diseased area)”.
Consider `COC(=O)NCc1cc(C(C)=NOCCc2ccccc2)ccc1C` [A-369], for which the “Evaluation” value is recorded as “A (No diseased area)”.
Consider `COC(=O)NCc1cc(C(C)=NOCc2cc(C)ccn2)ccc1Cl` [A-370], for which the “Evaluation” value was “A (No diseased area)”.
As for `COC(=O)NCc1cc(C(C)=NOCc2cccc(Cl)c2)ccc1F` [A-371], the “Evaluation” value was “A (No diseased area)”.
The result for `COC(=O)NCc1cc(C(C)=NOCc2ccc(Cl)cc2)ccc1F` [A-372] reads “A (No diseased area)”; that for `COC(=O)NCc1cc(C(C)=NOCc2cccc(C)c2)ccc1F` [A-373], “A (No diseased area)”; that for `COC(=O)NCc1cc(C(C)=NOCc2ccc(C)cc2)ccc1F` [A-374], “A (No diseased area)”.
Turning to `COC(=O)NCc1cc(C(C)=NOCc2cccc(C(F)(F)F)c2)ccc1F` [A-375], the “Evaluation” value is on record as “B (Diseased area of less than 5%)”.
The entry for `COC(=O)NCc1cc(C(C)=NOCc2ccc(C(F)(F)F)cc2)ccc1F` [A-376] is “B (Diseased area of less than 5%)”.
The entry for `COC(=O)NCc1cc(C(C)=NOCc2ccccc2C#N)ccc1F` [A-377] is “A (No diseased area)”; for `COC(=O)NCc1cc(C(C)=NOC(C)c2ccccc2Cl)ccc1F` (stereo not shown) [A-378] it is “A (No diseased area)”; for `COC(=O)NCc1cc(C(C)=NOC(C)c2cccc(Cl)c2)ccc1F` (stereo not shown) [A-379] it is “A (No diseased area)”.
The entry for `COC(=O)NCc1cc(C(C)=NOC(C)c2ccc(Cl)cc2)ccc1F` (stereo not shown) [A-380] is “A (No diseased area)”; for `COC(=O)NCc1c(C)c(C)c(C)c(C(C)=NOCc2ccccc2)c1C` [A-381] it is “A (No diseased area)”; for `COC(=O)NCc1c(Cl)c(Cl)c(Cl)c(C(C)=NOCc2ccccc2)c1Cl` [A-382] it is “B (Diseased area of less than 5%)”.
Regarding `COC(=O)NCc1cccc(C(C)=NOc2cccc(Cl)c2C#N)c1` [A-385], the “Evaluation” value was “B (Diseased area of less than 5%)”.
The result for `COC(=O)NCc1cccc(C(C)=NOCc2cccc(Cl)c2Cl)c1` [A-386] reads “B (Diseased area of less than 5%)”.
The result for `COC(=O)NCc1cccc(C(C)=NOCc2ccc(Cl)cc2Cl)c1` [A-387] reads “B (Diseased area of less than 5%)”.
The result for `COC(=O)NCc1cccc(C(C)=NOCc2cc(Cl)ccc2Cl)c1` [A-388] reads “A (No diseased area)”; that for `COC(=O)NCc1cccc(C(C)=NOCc2c(Cl)cccc2Cl)c1` [A-389], “A (No diseased area)”.
Take `COC(=O)NCc1cc(C(C)=NOCc2cccc(C#N)n2)ccc1Cl` [A-396]: the “Evaluation” value is recorded as “A (No diseased area)”.
Regarding `COC(=O)NCc1cc(C(C)=NOCc2cccnc2C#N)ccc1Cl` [A-397], the “Evaluation” value is recorded as “A (No diseased area)”.
On to `COC(=O)NCc1cccc(C(C)=NOCc2ccccc2F)c1` [A-398], for which the “Evaluation” value was “A (No diseased area)”.
